54 compounds from US11608341B2, “Substituted tetrahydropyrazolo[3,4-d]pyrimidines and tetrahydropyrazolo[4,3-d]pyrimidines as C5A receptor modulators” (Idorsia Pharmaceuticals Ltd., priority 2018, dated 2023) can be followed below.

This experiment addresses T1, C5AR1 (Homo sapiens, UniProt P21730).
T1 construct: host or cells: CHO-K1
T1 sequence (P21730 1-350): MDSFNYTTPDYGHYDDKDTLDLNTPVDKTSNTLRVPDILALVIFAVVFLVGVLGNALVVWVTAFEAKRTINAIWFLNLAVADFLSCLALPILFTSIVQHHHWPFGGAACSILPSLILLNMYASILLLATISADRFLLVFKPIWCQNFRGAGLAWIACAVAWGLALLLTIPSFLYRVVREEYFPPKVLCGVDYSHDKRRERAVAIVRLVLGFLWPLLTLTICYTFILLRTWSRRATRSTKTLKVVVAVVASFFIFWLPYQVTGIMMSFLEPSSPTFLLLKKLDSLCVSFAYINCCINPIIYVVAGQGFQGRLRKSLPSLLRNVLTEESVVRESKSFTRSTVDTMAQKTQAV
Put plainly: In vitro assay: antagonism of C5a-induced beta-arrestin recruitment (PathHunter) in CHO-K1 C5AR1 beta-arrestin cell line. It is filed as cell-based. To be noted: antagonistic activity, 1-10 nM C5a agonist, geometric mean where several measurements, read-out: C5aR IC50. As to the method: 5 μl Antagonist at 6-fold end concentration or DMSO control is added to assay medium and subsequently 5 μl 1-10 nM C5a agonist at 6 fold end concentration. Cells are centrifuged for 1 min at 1000 rpm and incubated for 1.5 hour in at 37° C. Plates are equilibrated at room temperature for several minutes before adding 12 μl/well Detection Reagent (PathHunter Detection Kit, DiscoverX, Cat #93-0001). Plates are centrifuged for 1 min at 1000 rpm and incubated for 45 minutes at RT before being measured on a Fluostar Optima, BMG Labtech. IC50 values are calculated from a serial dilution range of antagonist using inhouse software and given in nmol/l.
The calculated IC50 values may fluctuate depending on the daily cellular assay performance. Fluctuations of this kind are known to those skilled in the art. Average IC50 values from several measurements are given as geometric mean values.
A general note: Activated receptors often draw arrestin, which recruitment assays turn into a signal.
Take `Cc1cccc(F)c1N1CCC(N2Cc3cn(CCN)nc3N(Cc3ccccc3C(F)(F)F)C2=O)CC1` [Example 26]: the half-maximal inhibitory concentration (IC50) (in general, the point on the concentration scale where inhibition reaches its midpoint) was 173 nM.

Consider `COc1cccc(C)c1N1CCC(N2Cc3cn(C)nc3N(Cc3ccccc3C(F)(F)F)C2=O)CC1` [Example 48], for which the half-maximal inhibitory concentration (IC50) came out at 18 nM.

For `COc1nccc(C)c1N1CCC(N2Cc3cn(C4CC4)nc3N(Cc3ccccc3C(F)(F)F)C2=O)CC1` [Example 209], the 50% inhibitory concentration (IC50) came out at 5 nM.

Take `Cc1cccc(F)c1N1CCC(N2Cc3cn(C4CN(C(=O)OC5COC5)C4)nc3N(Cc3ccccc3C(F)(F)F)C2=O)CC1` [Example 139]: the 50% inhibitory concentration (IC50) turned out to be 18 nM.

As for `COCCN(C)CCn1cc2c(n1)N(Cc1ccccc1C(F)(F)F)C(=O)N(C1CCN(c3c(C)cccc3F)CC1)C2` [Example 74], the IC50 turned out to be 26 nM.

As to `CC1c2cn(C)nc2N(Cc2ccccc2C(F)(F)F)C(=O)N1C1CCN(c2c(F)cccc2C(F)F)CC1` (single isomer, unassigned) [Example 314], the IC50 was 8 nM. Turning to `COc1nccc(C(F)F)c1N1CCC(N2C(=O)N(Cc3ccccc3C(F)(F)F)c3nn(C4CCCCO4)cc3C2C)CC1` (stereo not drawn) [Example 343], the IC50 was 57 nM. As for `COCn1cc2c(n1)N(Cc1ccccc1C(F)(F)F)C(=O)N(C1CCN(c3c(C)ccnc3OC)CC1)C2` [Example 227], the IC50 came out at 10 nM.

With `Cc1nccc(F)c1N1CCC(N2Cc3cn(C)nc3N(Cc3ccccc3C(F)(F)F)C2=O)CC1` [Example 86], the half-inhibitory concentration (IC50) came out at 230 nM. Then `Cc1cccc(F)c1N1CCC(N2C(=O)N(Cc3ccccc3C(F)(F)F)c3n[nH]cc3C2C)CC1` (single isomer, unassigned) [Example 316], with 9 nM.

`Cc1cccc(F)c1N1CCC(N2Cc3cn(C(=O)N(C)C)nc3N(Cc3ccccc3C(F)(F)F)C2=O)CC1` [Example 149]: the half-maximal inhibitory concentration (IC50) is 70 nM. Turning to `Cc1cccc(F)c1N1CCC(N2Cc3cn(CC4(F)CC4)nc3N(Cc3ccccc3C(F)(F)F)C2=O)CC1` [Example 167], the half-maximal inhibitory concentration (IC50) is 10 nM.

For `Cc1cccc(F)c1N1CCC(N2Cc3cn(CC4CC4(F)F)nc3N(Cc3ccccc3C(F)(F)F)C2=O)CC1` (single isomer, unassigned) [Example 190], the IC50 was 11 nM. In the case of `COC(=O)N1CC[C@H]1Cn1cc2c(n1)N(Cc1ccccc1C(F)(F)F)C(=O)N(C1CCN(c3c(C)cccc3F)CC1)C2` [Example 123], the half-inhibitory concentration (IC50) is 19 nM. Consider `Cc1cccc(F)c1N1CCCC(N2Cc3cn(C)nc3N(Cc3ccccc3C(F)(F)F)C2=O)C1` (single isomer, unassigned) [Example 242], for which the IC50 turned out to be 628 nM. Then `Cc1cccc(F)c1N1CCC(N2Cc3cn(C)nc3N(Cc3ccccc3OC3CC3)C2=O)CC1` [Example 21], with 13 nM; and `Cc1cccc(F)c1N1CCC(N2C(=O)N(Cc3ccccc3C(F)(F)F)c3cn(C4CC4)nc3C2C)CC1` (single isomer, unassigned) [Example 266], with 356 nM; and `Cc1cccc(F)c1N1CCC(N2Cc3cn(C4CN(S(=O)(=O)N(C)C)C4)nc3N(Cc3ccccc3C(F)(F)F)C2=O)CC1` [Example 137], with 81 nM.

For `Cc1cccc(F)c1N1CCC(N2Cc3cn(C)nc3N(Cc3nc(F)ccc3C(F)(F)F)C2=O)CC1` [Example 36], the IC50 came to 7 nM. On to `Cc1cccc(F)c1N1CCC(N2Cc3cn(C)nc3N(Cc3nnccc3OC(C)C)C2=O)CC1` [Example 267], for which the 50% inhibitory concentration (IC50) worked out at 201 nM. In the case of `COC1CN(CCn2cc3c(n2)N(Cc2ccccc2C(F)(F)F)C(=O)N(C2CCN(c4c(C)cccc4F)CC2)C3)C1` [Example 34], the IC50 was 22 nM. Then `CC1c2cn(C3CC3)nc2N(Cc2ccccc2C(F)(F)F)C(=O)N1C1CCN(c2c(F)cccc2Cl)CC1` (single isomer, unassigned) [Example 335], with 12 nM; and `CCOC(Cn1cc2c(n1)N(Cc1ccccc1C(F)(F)F)C(=O)N(C1CCN(c3c(C)cccc3F)CC1)C2)OCC` [Example 28], with 83 nM. For `Cc1cccc(F)c1N1CCC(N2Cc3cn(C[C@@H]4CC(F)(F)CN4)nc3N(Cc3ccccc3C(F)(F)F)C2=O)CC1` [Example 112], the IC50 came to 18 nM.

In the case of `Cc1cccc(F)c1N1CCC(N2Cc3cn(C4COC4)nc3N(Cc3ccccc3C(F)(F)F)C2=O)CC1` [Example 77], the IC50 amounted to 10 nM.

Consider `Cc1cccc(Cl)c1N1CCC(N2Cc3cn(C)nc3N(Cc3ccccc3C(F)(F)F)C2=O)CC1` [Example 245], for which the IC50 was 16 nM. The value for `COc1nccc(C)c1N1CCC(N2Cc3nn(C)cc3N(Cc3ccccc3C(F)(F)F)C2=O)CC1` [Example 224] was 76 nM; that for `Cc1cccc(F)c1N1CCC(N2Cc3cn(CC(C)N)nc3N(Cc3ccccc3C(F)(F)F)C2=O)CC1` (stereo not drawn) [Example 80] was 350 nM. Then `COC(=O)N1CC[C@@H]1Cn1cc2c(n1)N(Cc1ccccc1C(F)(F)F)C(=O)N(C1CCN(c3c(C)cccc3F)CC1)C2` [Example 133], with 22 nM; and `COc1ccc(C(F)(F)F)c(CN2C(=O)N(C3CCN(c4c(C)cccc4F)CC3)Cc3cn(C)nc32)n1` [Example 38], with 12 nM. Consider `COc1nccc(C)c1N1CCC(N2C(=O)N(Cc3ccccc3C(F)(F)F)c3c[nH]nc3C2C)CC1` (single isomer, unassigned) [Example 295], for which the 50% inhibitory concentration (IC50) was 25 nM.

Consider `Cc1cccc(F)c1N1CCC(N2Cc3cn(C(C)(C)C(N)=O)nc3N(Cc3ccccc3C(F)(F)F)C2=O)CC1` [Example 84], for which the half-inhibitory concentration (IC50) is 74 nM.

On to `Cc1cccc(F)c1N1CCC(N2Cc3cn(C4CNC4=O)nc3N(Cc3ccccc3C(F)(F)F)C2=O)CC1` (stereo not drawn) [Example 157], for which the IC50 was 17 nM. As for `COC(=O)Cn1cc2c(n1)N(Cc1ccccc1C(F)(F)F)C(=O)N(C1CCN(c3c(C)cccc3F)CC1)C2` [Example 17], the half-inhibitory concentration (IC50) is 13 nM. Consider `COc1nccc(C(F)F)c1N1CCC(N2C(=O)N(Cc3ccccc3C(F)(F)F)c3nn(C)cc3C2C)CC1` (single isomer, unassigned) [Example 347], for which the half-maximal inhibitory concentration (IC50) was determined as 201 nM.

Take `Cc1nn(C)c(N2CCC(N3Cc4cn(C)nc4N(Cc4ccccc4C(F)(F)F)C3=O)CC2)c1Cl` [Example 238]: the IC50 was found to be 166 nM.

For the compound `Cc1cccc(F)c1N1CCC(N2Cc3cn(C(C)(C)C)nc3N(Cc3ccccc3C(F)(F)F)C2=O)CC1` [Example 173], the IC50 was 15 nM.

As for `C=C(C)Cn1cc2c(n1)N(Cc1ccccc1C(F)(F)F)C(=O)N(C1CCN(c3c(C)cccc3F)CC1)C2` [Example 154], the half-inhibitory concentration (IC50) amounted to 26 nM. Turning to `Cc1nnc(N2CC(n3cc4c(n3)N(Cc3ccccc3C(F)(F)F)C(=O)N(C3CCN(c5c(C)cccc5F)CC3)C4)C2)o1` [Example 142], the IC50 came out at 32 nM. For `COc1nccc(C(F)F)c1N1CCC(N2C(=O)N(Cc3ccccc3C3CC3)c3n[nH]cc3C2C)CC1` (single isomer, unassigned) [Example 370], the concentration for half-maximal inhibition (IC50) turned out to be 19 nM. For the compound `Cc1cccc(F)c1N1CCC(N2Cc3cn(CC(C)(C)O)nc3N(Cc3ccccc3C(F)(F)F)C2=O)CC1` [Example 25], the IC50 was 18 nM. The value for `Cc1cccc(F)c1N1CCC(N2Cc3nn(COCC[Si](C)(C)C)cc3N(Cc3ccccc3C(F)(F)F)C2=O)CC1` [Example 195] was 45 nM. Take `COc1nccc(C)c1N1CCC(N2C(=O)N(Cc3ccccc3C3CC3)c3cn(C4CCCCO4)nc3C2C)CC1` (stereo not drawn) [Example 269]: the half-maximal inhibitory concentration (IC50) was found to be 193 nM. For `Cc1cccc(F)c1N1CCC(N2Cc3cn(C)nc3N(Cc3ccccc3OC(C)C)C2=O)CC1` [Example 251], the IC50 came to 9 nM. With `Cc1cccc(F)c1N1CCC(N2Cc3cn(C)nc3N(Cc3ccccc3C(C)C)C2=O)CC1` [Example 231], the half-maximal inhibitory concentration (IC50) came to 17 nM. As to `Cc1cccc(F)c1N1CCC(N2Cc3nn(CC4(C)CC4)cc3N(Cc3ccccc3C(F)(F)F)C2=O)CC1` [Example 180], the half-maximal inhibitory concentration (IC50) is 11 nM.

Take `COc1nccc(C)c1N1CCC(N2Cc3cn(C)nc3N(C(C)c3ccccc3C(F)(F)F)C2=O)CC1` (single isomer, unassigned) [Example 286]: the concentration for half-maximal inhibition (IC50) was 33 nM.

`Cc1cccc(F)c1N1CCC(N2Cc3cn(CCNC(=O)OC(C)(C)C)nc3N(Cc3ccccc3C(F)(F)F)C2=O)CC1` [Example 67]: the IC50 worked out at 15 nM. For `Cc1cccc(F)c1N1CCC(N2Cc3cn(CC4(C)COC4)nc3N(Cc3ccccc3C(F)(F)F)C2=O)CC1` [Example 166], the half-maximal inhibitory concentration (IC50) came to 12 nM. Then `Cc1cccc(F)c1N1CCC(N2Cc3cn(C(C)C(F)F)nc3N(Cc3ccccc3C(F)(F)F)C2=O)CC1` (single isomer, unassigned) [Example 187], with 13 nM; and `Cc1cccc(F)c1N1CCC(N2Cc3cn(C[C@H]4CCN4)nc3N(Cc3ccccc3C(F)(F)F)C2=O)CC1` [Example 130], with 390 nM; and `Cc1ccc(C(F)(F)F)c(CN2C(=O)N(C3CCN(c4c(C)cccc4F)CC3)Cc3cn(C)nc32)n1` [Example 37], with 53 nM.

For `Cc1cccc(F)c1N1CCC(N2Cc3cn(C[C@@H]4CCN4C(=O)OC(C)C)nc3N(Cc3ccccc3C(F)(F)F)C2=O)CC1` [Example 125], the IC50 amounted to 14 nM. Then `COc1nccc(C)c1N1CCC(N2C(=O)N(Cc3ccccc3C(F)(F)F)c3nn(C)cc3C2C)CC1` (single isomer, unassigned) [Example 331], with 6 nM.
